# Laboratory results reported in PMC4914250, “Cancer therapeutic approach based on conformational stabilization of mutant p53 protein by small peptides” (Oncotarget, 2016).
# Test system: p53 target genes in ES2 cells
# Assay: Induction of p53 target genes by qRT-PCR, ES2
# Type: cell-based, human
# Conditions: for PCR ES2: score 0-6 compared to positive control, induction of p53 target genes by qRT-PCR; for expression of the p53 target genes, ES2: peptide 5ug/ml, 18 hours, ES2 versus ES2 p53KO
# Procedure: Since p53 works primarily as a transcription factor, we tested the ability of lead peptides to induce p53 target gene activation. To that end we used H1299-tsp53^V135A cells, which express temperature sensitive (ts) p53 and allow examination of WT and mutant p53 states in the same cellular background. In the representative experiment shown in Figure 3A, cells were exposed to the indicated peptides (5μg/ml) and then either transferred to 32°C or placed back at 37°C. Cells were harvested 18 hours later, and mRNA was extracted and subjected to qRT-PCR analysis. Expression levels of 3 representative p53 target genes, p21, PUMA and Mdm2, were examined. Values were normalized to non-treated cells at 37°C, and expression at 32°C, where the ts-p53 is in a WT conformation, served as positive control. […] A similar analysis was performed on ES2 ovarian cancer cells, expressing endogenous mp53^S241F, compared to ES2 p53KO cells (Figure 3B).
# Figure 3 Peptides binding to p53 and their effect on the expression of p53 target genes A. - Bar graph illustrating the effect of selected peptides on activation of mutp53 by measuring transactivation of p53 target genes as determined by qRT-PCR. H1299 cells stably transfected with mutp53 (ts) A135V were used. The indicated peptides were added directly to the medium at a concentration of 5ug/ml and cells were then either moved to 32°C or returned to 37°C. 18 hours later cells were harvested, extracted for RNA, cDNA was synthesis subjected to qrt time PCR analysis. The expression level of 3 representative p53 target genes, p21, PUMA and Mdm2, were examined. The figure illustrates the relative fold induction of transcription of the cells treated with the selected peptides as compared to non-treated cells. B. - Bar graph illustrating the effect of selected peptides on activation of mutp53 by measuring transactivation of p53 target genes as determined by qRT-PCR. ES2and ES2-p53KO cells were treated with indicated peptides 5ug/ml, for 18 hours. Cells were harvested, and cDNA was subjected to qRT-PCR analysis. Expression of 4 representative p53 target genes, p21, PUMA, Mdm2 and CD95, was examined. The figure illustrates the relative fold induction of transcription in cells treated with the selected peptides compared to non-treated cells. C. - Binding of mutp53 to promoters of representative p53 target genes in live cells, assessed by chromatin immunoprecipitation. BT-549 breast cancer cells endogenously expressing mutant p53^R249S were treated for 5 hours with a mix of 3 pCAPs - 250, 242 and 325. Cells treated with a mix of inert peptides served as a negative control. DNA cross-linked p53 was immunoprecipitated, and binding to the p53 responsive elements of the PUMA, p21, CD95 and MDM2 gene promoters was quantified by qPCR. Results were normalized to input total DNA. Cell extracts immunoprecipitated with beads without antibody (beads) served as negative controls. A genomic segment containing no p53RE served as negative control (white and gray bars). D. - ELISA analysis of the binding of WTp53 and mutp53 to lead peptides. Peptides were conjugated to the bottoms of the wells of 96 well plates, employing a commercial conjugation kit (TAKARA). Control wells were coated with the αp53 monoclonal antibodies PAb1801, PAb1620 and PAb240. Recombinant WTp53 or mutp53R175H was added to the wells and incubated with the bound peptides or antibodies. Where indicated, soluble peptides were added as competitors (+ comp), to confirm the specificity of the binding to p53. pCAP-76 served as a negative control peptide. After removal of recombinant protein, plates were washed and incubated with αp53-HRP followed by TMB and optical density determination. Results are presented as relative absorbance at 450nm. […] See Materials and Methods for details.
# Figure 4 Peptides trigger apoptosis in correlation to activation of WTp53 target genes A., C. - Apoptosis of ES2 cells treated with peptides. […]
Substance,PCR ES2,"expression of the p53 target genes, ES2"
"EVTFRHSVV [pCAP-1, randomly selected peptide used as inert comparison]",3,–
HANLHHT [pCAP-87],2,–
HHPWTHHQRWS [pCAP-20],4,–
IRGRIIR [pCAP-54],–,significant increase
"LRCLLLLIGRVGRRRRRRRR [pCAP-24R, pCAP-24 with poly arginine tail]",4,significant increase
"SFILFIRRGRLGRRRRRRRRR [pCAP-60R, pCAP-60 with poly arginine tail]",–,significant increase
WNHHHSTPHPAH [pCAP-97],5,–
"WNHHHSTPHPAHRRRRRR [pCAP-97R, pCAP-97 with poly arginine tail]",5,significant increase
YRRLLIGMMWRRRRRRRRR [pCAP-68],3,–
"myr-PRVLPSPHTIHPSQYP [pCAP-229, myristoylated peptide, similarity to HIPK2]",3,–
myr-RRKHNKHRPEPDSDER [pCAP-221],4,–
"myr-RRKILFIRLMHNKH [pCAP-227, myristoylated peptide, similarity to GAS2]",5,–
myr-RRLIVRILKLPNPPER [pCAP-242],4,–
